# Measured values as given in article PMC8362001 (Angewandte Chemie (International Ed. in English), 2021).
# Experiments:
# [1] = Hydrolysis of the P−N bond under acidic conditions; assay type: physicochemical; settings: slightly acidic conditions (pH≤3)
# eGFP (C70M S147C) = eGFP (C70M S147C) (Aequorea victoria, UniProt P42212, C70M/F64L/H231L/S147C/S65T); test: Second-order rate constant of the reaction with eGFP, intact protein MS; settings: one equivalent of eGFP (C70M S147C), Tris buffer pH 8.3, 90 μM, room temperature, eGFP C70M as internal standard, triplicate
smiles,measurement,setting,value
C#CP(=O)(C#C)N(CC)CC [II],Hydrolytic stability of the P−N bond,[1],rapid hydrolysis of the P−N bond
C#CCCOP(=O)(C#C)C#C [compound 2],second‐order rate constant,eGFP (C70M S147C),approximately 0.47 M^−1 s^−1
